Data set [1] has as its system spontaneously hypertensive rats. Description: Antihypertensive efficacy test in spontaneously hypertensive rats (systolic blood pressure and heart rate by implanted sensor). Particulars: SHR, 1 mg/kg; for Systolic blood pressure change / Heart rate change: average ± standard error; for Heart rate change: oral. Format: in vivo, rat. The protocol:
12-week-old spontaneously hypertensive rats (hereinafter referred to as SHR, purchased from Beijing Weitong Lihua Experimental Animal Technology Co., Ltd.) were anesthetized with 2.5% sodium pentobarbital for intraperitoneal injection. After that, the blood pressure sensing catheter of hypertension implant was inserted into their abdominal aorta, while the implant was fixed to the abdominal wall, and then postoperative daily care was performed after suturing.
Rats with systolic blood pressure exceeding 160 mm Hg were divided into 3 groups (control group, compound (A) group and compound (B) group), wherein each group has 8 rats. The control group was administrated 0.5% sodium carboxymethyl cellulose (hereinafter referred to as CMC-Na); the compound (B) group and the compound (A) group were respectively administered the compound (B) and the compound (A), both of which were dissolved by 0.5% CMC-Na, by intragastric administration, at a dose of 1 mg/kg (calculated by the effective dose of valsartan) and a volume calculated by 4 mL/kg.
The systolic blood pressure and heart rate of SHR were compared before and after administration (the systolic blood pressure and heart rate of SHR before administration as reference value), which were detected three times at each time point with the average value recorded.

Data set [2] in a line: Competition test between crystalline forms at room temperature (ethyl acetate suspension, XRD). Format: physicochemical. Particulars: for stability under room temperature relative to the competing form: competition in ethyl acetate suspension. The protocol: Equivalent amounts of crystalline form I and crystalline form II samples were mixed well, added with 0.8 ml ethyl acetate to form a suspension, stirred overnight and detected by XRD.
Equivalent amounts of crystalline form II and form III samples were mixed well, added with 0.2 ml ethyl acetate to form a suspension, which was stirred overnight to obtain a crystalline form II determined by XRD detection.
Equivalent amounts of crystalline form I and form III samples were mixed uniformly, added with 0.2 ml ethyl acetate to form a suspension, which was stirred overnight, to obtain a crystalline form I determined by XRD detection.

Data set [3] is described as follows: Comparative stability of crystalline form III and IV on drying overnight at room temperature (XRD). Type of data set: physicochemical. From the text: The crystalline form III and the crystalline form IV samples were respectively dried overnight at room temperature.
A short description of data set [4]: Comparative stability test (total impurity content, 25° C., 60% relative humidity). Type of data set: physicochemical. Particulars: for total impurity content: packed; for chemical stability relative to the amorphous form: total impurity content. On the procedure: The stability of an amorphous form, the crystalline form I, a mixture of the crystalline form I and the crystal II, the crystal II, and the crystalline form III of the compound (A) was investigated. Specifically, the amorphous form, the crystalline form I, the mixture of the crystalline form I and the crystalline form II (weight ratio 1:2), the crystalline form II and the crystalline form III were taken 200 mg respectively to be investigated as follows:
Packing: Polyvinyl chloride (PVC) ziplock bag (the inner layer) was vacuumized, aluminum foil (the middle layer) was vacuumized, and aluminum foil desiccant (the outer layer) was vacuum and filled in with nitrogen;
Inspection conditions: 25° C., 60% relative humidity. The indicator was the total impurity content, which is determined by detection of samples three times at each time point with the average value recorded. The time points for sampling include 0, 1, 2, 3 and 6 months after packing.

A short description of data set [5]: Effects of tabletting processes on the crystalline form II (XRD). Type of data set: physicochemical. Particulars: tableted under 20 kg and 25 kg pressure. On the procedure:
Tabletting method: 50 mg of the crystalline form II was tableted under 20 kg and 25 kg pressure by a single punching machine.
The XRD of the obtained sample powder was compared with the XRD of the crude sample, the results are shown in FIG. 8 (from top to bottom: the crude sample, the sample after 25 kg pressure tabletting and the sample after 20 kg pressure tabletting).

Data set [6] in a line: Influences of high temperature and high humidity on the crystalline form II (XRD). Type of data set: physicochemical. Particulars: 10 days. On the procedure: Two samples of 20 mg the crystalline form II were respectively placed at 60° C. (sealed and shielded from light) and 85% relative humidity (exposed in the air at room temperature and shielded from light), detected by XRD after 10 days and compared with XRD of the crude sample.

Where [7] appears, read: intragastric, 1 hour after administration.
The mark [8] stands for this setting: intragastric, 3 hours after administration.
[9] abbreviates: intragastric, 5 hours after administration.
The mark [10] stands for this setting: intragastric, 7 hours after administration.
Where [11] appears, read: intragastric, 10 hours after administration.
The mark [12] stands for this setting: intragastric, 24 hours after administration.
Where [13] appears, read: intragastric, before administration (reference value).
Where [14] appears, read: before administration (reference value).

Each structure is given as a SMILES string. “Also recorded” adds a separate entry of the source.

As to `CCOc1nc2cccc(C(=O)OC(C)OC(=O)OCc3nc(C)c(C)nc3C)c2n1Cc1ccc(-c2ccccc2-c2noc(=O)[n-]2)cc1.[K+]` (stereo not shown) [Compound (A)], the “effect of lowering heart rate compared with the compound (B) group” value in data set [1] is “more potent with longer-lasting effect of lowering heart rate”. Further, in data set [1] (intragastric), the “antihypertensive effect compared with the compound (B) group” value is reported as “more potent with longer-lasting antihypertensive effect”. Besides, the “Systolic blood pressure change” value in data set [1] (setting [7]) is recorded as −7.0 ± 3.4 mmHg; in data set [1] (setting [8]) it was −34.3 ± 1.9 mmHg; in data set [1] (setting [9]), −46.5 ± 2.5 mmHg; in data set [1] (setting [10]), −49.4 ± 4.1 mmHg; in data set [1] (setting [11]), −45.3 ± 3.3 mmHg; in data set [1] (setting [12]), −25.9 ± 3.4 mmHg. The “Systolic blood pressure change” value in data set [1] (setting [13]) is listed as 0.0 ± 0.0 mmHg. For the same compound, the Heart rate change is −3.6 ± 2.4 times/minute in data set [1] (1 hour after administration); −5.0 ± 2.5 times/minute in data set [1] (3 hours after administration); −10.1 ± 3.0 times/minute in data set [1] (5 hours after administration); −17.5 ± 3.0 times/minute in data set [1] (7 hours after administration); −25.4 ± 2.4 times/minute in data set [1] (10 hours after administration); −28.6 ± 8 times/minute in data set [1] (24 hours after administration). Further, the Heart rate change in data set [1] (setting [14]) is given as 0.0 ± 0.0 times/minute.

On to `CCOc1nc2cccc(C(=O)OC(C)OC(=O)OCc3nc(C)c(C)nc3C)c2n1Cc1ccc(-c2ccccc2-c2noc(=O)[nH]2)cc1` (stereo not shown) [Compound (B), reference compound], for which the “Systolic blood pressure change” value in data set [1] (setting [7]) is −4.9 ± 4.8 mmHg; in data set [1] (setting [8]) it was −22.0 ± 3.6 mmHg; in data set [1] (setting [9]) it was −30.5 ± 3.5 mmHg; in data set [1] (setting [10]), −38.8 ± 2.3 mmHg; in data set [1] (setting [11]) it was −33.0 ± 1.7 mmHg; in data set [1] (setting [12]), −10.2 ± 2.1 mmHg. Also, the “Systolic blood pressure change” value in data set [1] (setting [13]) was found to be 0.0 ± 0.0 mmHg. The Heart rate change in data set [1] (1 hour after administration) was −3.4 ± 2.6 times/minute; in data set [1] (3 hours after administration), −2.33 ± 2.6 times/minute; in data set [1] (5 hours after administration) it was −6.5 ± 2.8 times/minute; in data set [1] (7 hours after administration), −6.2 ± 3.0 times/minute; in data set [1] (10 hours after administration) it was −12.3 ± 2.8 times/minute; in data set [1] (24 hours after administration), −6.7 ± 2.6 times/minute. For the same compound, the Heart rate change in data set [1] (setting [14]) came to 0.0 ± 0.0 times/minute.

Take `CCOc1nc2cccc(C(=O)OC(C)OC(=O)OCc3nc(C)c(C)nc3C)c2n1Cc1ccc(-c2ccccc2-c2noc(=O)[n-]2)cc1.[K+]` (stereo not shown) [crystalline form III]: the “transformation of crystalline form in competition with form I” value in data set [2] (equivalent amounts of form I and form III, ethyl acetate suspension, stirred overnight, XRD) is “completely transformed into the crystalline form I”. Further, the “transformation of crystalline form in competition with form II” value in data set [2] (equivalent amounts of form II and form III, ethyl acetate suspension, stirred overnight, XRD) is on record as “completely transformed into the crystalline form II”. In addition, in data set [3] (dried overnight at room temperature, XRD), the “share converted to the crystalline form I” value is “no more than 30%”. Besides, the “stability at room temperature relative to crystalline form IV” value in data set [3] is recorded as “superior to that of the crystalline form IV”. Moreover, the total impurity content is recorded as 1.56% in data set [4] (0 months); 2.55% in data set [4] (1 month); 2.98% in data set [4] (2 months); 3.34% in data set [4] (3 months); 3.76% in data set [4] (6 months). Moreover, the “chemical stability relative to the amorphous form” value in data set [4] is given as “better than the amorphous form”.

For `CCOc1nc2cccc(C(=O)OC(C)OC(=O)OCc3nc(C)c(C)nc3C)c2n1Cc1ccc(-c2ccccc2-c2noc(=O)[n-]2)cc1.[K+]` (stereo not shown) [crystalline form II], the “stability under room temperature relative to the competing form” value in data set [2] is listed as “better than that of form I; also recorded: better than that of form III”. Further, the “stability at room temperature relative to crystalline form IV” value in data set [3] is “superior to that of the crystalline form IV”. Also, the “crystalline form after tabletting” value in data set [5] is given as “remains unchanged”. The “crystalline form after high temperature” value in data set [6] (60° C., sealed and shielded from light) is “remains unchanged”. In addition, the “crystalline form after high humidity” value in data set [6] (85% relative humidity, room temperature, shielded from light) is on record as “remains unchanged”. Besides, the total impurity content stood at 1.29% in data set [4] (0 months); 1.43% in data set [4] (1 month); 1.59% in data set [4] (2 months); 1.82% in data set [4] (3 months); 1.87% in data set [4] (6 months). Further, in data set [4], the “chemical stability relative to the amorphous form” value was “better than the amorphous form”.

Turning to `CCOc1nc2cccc(C(=O)OC(C)OC(=O)OCc3nc(C)c(C)nc3C)c2n1Cc1ccc(-c2ccccc2-c2noc(=O)[n-]2)cc1.[K+]` (stereo not shown) [crystalline form IV], the “transformation of crystalline form on drying” value in data set [3] (dried at room temperature, XRD) is listed as “converted to crystalline form I; also recorded: completely transformed into the crystalline form I”.

Regarding `CCOc1nc2cccc(C(=O)OC(C)OC(=O)OCc3nc(C)c(C)nc3C)c2n1Cc1ccc(-c2ccccc2-c2noc(=O)[n-]2)cc1.[K+]` (stereo not shown) [crystalline form I], in data set [2], the “stability under room temperature relative to the competing form” value is listed as “better than that of the crystalline form III”. Also, in data set [2] (equivalent amounts of form I and form II, ethyl acetate suspension, stirred overnight, XRD), the “content of crystalline form I in the obtained product” value is reported as “about 5%”. Further, in data set [3], the “stability at room temperature relative to crystalline form IV” value is “superior to that of the crystalline form IV”. For the same compound, the total impurity content in data set [4] (0 months) came out at 1.11%; in data set [4] (1 month) it was 1.62%; in data set [4] (2 months), 2.34%; in data set [4] (3 months), 2.49%; in data set [4] (6 months), 3.10%. Besides, in data set [4], the “chemical stability relative to the amorphous form” value is “better than the amorphous form”.

As for `CCOc1nc2cccc(C(=O)OC(C)OC(=O)OCc3nc(C)c(C)nc3C)c2n1Cc1ccc(-c2ccccc2-c2noc(=O)[n-]2)cc1.[K+]` (stereo not shown) [mixture of crystalline form I and II], the total impurity content in data set [4] (0 months) came out at 0.90%; in data set [4] (1 month), 1.58%; in data set [4] (2 months), 2.20%; in data set [4] (3 months), 2.40%; in data set [4] (6 months), 3.29%. Further, the “chemical stability relative to the amorphous form” value in data set [4] is recorded as “better than the amorphous form”.

(Values after US10611757B2, “Crystalline form of chemical compound, and preparation method, composition, and application thereof” (WUHAN LL SCIENCE AND TECHNOLOGY DEVELOPMENT CO., LTD., priority 2016, dated 2020).)
